In DBAASP:
Converted amounts (≈) assume the structure as drawn.

What was measured:
Experiment in all cases: ≥ marks a high value that may be exact or a test limit, other limits are often not marked, values filed in µg/mL are converted to µM
[1] = tested on: Bacillus subtilis IFO 3336
[2] = tested on: Escherichia coli IFO 3301
[3] = tested on: Bacillus subtilis KCTC 3068
[4] = tested on: Candida albicans KCTC 7965
[5] = tested on: Escherichia coli KCTC 1682
[6] = tested on: Pseudomonas aeruginosa CCARM 2095
[7] = tested on: Pseudomonas aeruginosa CCARM 2109
[8] = tested on: Pseudomonas aeruginosa KCTC 1637
[9] = tested on: Salmonella typhimurium KCTC 1926
[10] = tested on: Staphylococcus aureus CCARM 3001
[11] = tested on: Staphylococcus aureus CCARM 3543
[12] = tested on: Staphylococcus aureus KCTC 1621
[13] = tested on: Staphylococcus epidermidis KCTC 1917

MIC [1] | MIC [2] | MIC [3] | MIC [4] | MIC [5] | MIC [6] | MIC [7] | MIC [8] | MIC [9] | MIC [10] | MIC [11] | MIC [12] | MIC [13] | SMILES
≥ 111 µM | ≥ 111 µM |  |  |  |  |  |  |  |  |  |  |  | NC(N)=NCCC[C@H](NC(=O)[C@H](Cc1cnc[nH]1)NC(=O)[C@H](CCCN=C(N)N)NC(=O)[C@H](Cc1cnc[nH]1)NC(=O)[C@@H](N)CCCN=C(N)N)C(=O)N[C@@H](Cc1cnc[nH]1)C(=O)O [RHRHRH]
 |  | 4 µM (≈ 6.96 µg/mL) | ≥ 64 µM | 8 µM (≈ 13.9 µg/mL) | 16 µM (≈ 27.8 µg/mL) | 16 µM (≈ 27.8 µg/mL) | 8 µM (≈ 13.9 µg/mL) | 2 µM (≈ 3.48 µg/mL) | 8 µM (≈ 13.9 µg/mL) | 2 µM (≈ 3.48 µg/mL) | 4 µM (≈ 6.96 µg/mL) | 2 µM (≈ 3.48 µg/mL) | CC(C)C[C@H](NC(=O)[C@H](Cc1c[nH]c2ccccc12)NC(=O)[C@H](CCCNC(=N)N)NC(=O)[C@H](CCCNC(=N)N)NC(=O)[C@H](Cc1c[nH]c2ccccc12)NC(=O)[C@H](CCCNC(=N)N)NC(=O)[C@H](CCCNC(=N)N)NC(=O)[C@H](Cc1c[nH]c2ccccc12)NC(=O)[C@H](CC(C)C)NC(=O)[C@@H](N)CCCNC(=N)N)C(=O)N[C@@H](CCCNC(=N)N)C(=O)O [RLWRRWRRWLR]
